Assay results published in patent publication US20260356814A1, “INDOLINE DERIVATIVES AS SEROTONERGIC AGENTS USEFUL FOR THE TREATMENT OF DISORDERS RELATED THERETO” (MINDSET PHARMA INC., priority 2022, published 2026).

Experiments:
human 5-HT1A receptor = molecular target: T1, human 5-HT1A receptor (Homo sapiens, UniProt P08908); assay: Human 5-HT1A: Functional FLIPR assay (agonist mode); format: cell-based; settings: for RFU@10 μM: @10 μM (head), footnote: curve fitting with activation (%) @ 10 mM with RFU, RFU=Fmax−Fmin; for EC50: FLIPR calcium, agonist mode, HTR1A&Gα15-CHO cells, ND: not detected, read-out: h5-HT1A, EC50
T1 construct: expressed in transfected cells; host or cells: CHO (HTR1A&Ga15-CHO)
T1 sequence (P08908 1-422): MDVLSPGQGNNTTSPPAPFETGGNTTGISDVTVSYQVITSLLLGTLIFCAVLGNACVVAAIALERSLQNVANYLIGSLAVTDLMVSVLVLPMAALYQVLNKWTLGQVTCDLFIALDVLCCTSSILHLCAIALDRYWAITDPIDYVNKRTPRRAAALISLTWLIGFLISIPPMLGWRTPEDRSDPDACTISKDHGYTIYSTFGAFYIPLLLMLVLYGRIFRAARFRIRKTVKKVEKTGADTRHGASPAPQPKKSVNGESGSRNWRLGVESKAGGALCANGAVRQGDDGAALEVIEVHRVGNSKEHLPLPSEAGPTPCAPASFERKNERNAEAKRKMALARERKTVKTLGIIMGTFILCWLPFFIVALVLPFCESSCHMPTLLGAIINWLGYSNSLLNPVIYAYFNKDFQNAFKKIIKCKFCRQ
Protocol: The potential excitatory effects of compounds targeting on 5-hydroxytryptamine receptor 1A (5-HT1A) under agonist mode was assessed.
HTR1A&Ga15-CHO cells were cultured in DMEM/F12 medium containing 10% dialyzed FBS, 1x penicillin-streptomycin and 600 μg/mL Hygromycin B. The cells were passaged about three times a week, maintained between ~30% to ~90% confluence.
• 1. The cell culture medium (DMEM/F12 medium containing 10% dialyzed FBS, 1x penicillin-streptomycin and 600 μg/mL Hygromycin B), TrypLE™ Express and DPBS was warmed to R.T. in advance. • 2. The cell culture medium was removed from flask. Washed cells with DPBS. • 3. 1 mL TrypLE™ Express was added to the flask, mixed well by gentle shaking and cells were incubated at 37° C. for a few minutes. • 4. The cells were checked for morphological change under microscope, the digestion was stopped by adding 2 mL cell culture medium to the flask when most of cells turned to round. • 5. The cell suspension was transferred into a 15 mL centrifuge tube, and then centrifuged at 1,200 rpm for 5 minutes. • 6. The supernatant was removed. The cell pellet were resuspended with 2 mL cell culture medium. • 7. The cell density were counted using cell counter. Only cells with >85% viability were used for the assay. • 8. Cells were diluted to 4×10^5/mL with cell culture medium. • 9. 30 μL/well cell suspensions were added into a 384-well cell plate (The cell density was 12,000 cells/well). • 10. The cell plate was incubated overnight at 37° C., 5% (v/v) CO2.
• 1. On the day of experiments, culture medium was removed from the cell plate. • 2. 10 μL of assay buffer (20 mM HEPES, in 1×HBSS, pH 7.4) was added to each well of the cell plate. • 3. 2× dye solution was prepared following the manufacture's instruction of the FLIPR® Calcium 6 assay kit: • i. The dye was diluted with assay buffer. • ii. probenecid was added to the final concentration of 5 mM. • iii. Vortexed vigorously for 1-2 minutes, adjust pH to 7.4. • 4. 10 μL of 2×dye solution was added to each well of the cell plate. • 5. The cell plate was placed on plate shaker, followed by shaking at 600 rpm for 2 minutes. • 6. The plate was incubated at 37° C. for 2 hours followed by an additional 15-minute incubation at 25° C. 3.4 Prepare 3×compounds. • 1. Serotonin was prepared to the concentration of 10 mM with DMSO, 3-folds serial dilutions were performed with DMSO. • 2. Prepare the test compound to the concentration of 10 mM with DMSO, preform 3-folds serial dilutions with DMSO. • 3. The compounds were added to a 384-well compound source plate. • 4. 90 nL/well of serial diluted compounds were transferred from source plate to a 384-well compound plate by using an Echo. • 5. 30 μL/well of assay buffer was added to the compound plate. • 6. The plate was mixed on-plate shaker for 2 minutes. 3.5 FLIPR assay • 1. After the cells incubate with dye solution, the cell plate, compound plate containing 3×compounds and FLIPR tips were placed into FLIPR. • 2. 10 μL of 3×compounds were transferred from the compound plate to the cell plate by FLIPR. • 3. The plate was read for 160 sec with 1 sec interval to obtain the data of agonist mode.
• 1. The normalized fluorescence reading (RFU) was calculated as shown below, wherein Fmax and Fmin stand for maximum and minimum of calcium signal during defined time window:
RFU=Fmax−Fmin • 2. EC50 was calculated by fitting RFU against log of compound concentrations with Hill equation using XLfit.

Plasma stability, rat = format: in vitro ADME; settings: 37° C.; for remaining at 0.5 h: 30 min, read-out: Remaining Percentage (%), 30 min; for remaining at 1 h: 60 min, read-out: Remaining Percentage (%), 60 min; for half-life: >255.85 if remaining at 60 min greater than 85%
Protocol: (§1) • a. […] The final concentration of organic solvents was 0.5%. The assay was performed in duplicated. • b.
(§2) All calculations were carried out using Microsoft Excel.

Plasma stability, human = format: in vitro ADME; settings: 37° C.; for remaining at 0.5 h: 30 min, read-out: Remaining Percentage (%), 30 min; for remaining at 1 h: 60 min, read-out: Remaining Percentage (%), 60 min; for half-life: >255.85 if remaining at 60 min greater than 85%
Protocol: as §1, §2

Plasma stability, mouse = format: in vitro ADME; settings: 37° C.; for remaining at 0.5 h: 30 min, read-out: Remaining Percentage (%), 30 min; for remaining at 1 h: 60 min, read-out: Remaining Percentage (%), 60 min; for half-life: >255.85 if remaining at 60 min greater than 85%
Protocol: as §1, §2

## [2H]C([2H])([2H])N1CCC[C@@H]1C([2H])([2H])N1CCc2ccc(OC)cc21 [(R)-I-57, (R)-6-Methoxy-1-((1-(methyl-d3)pyrrolidin-2-yl)methyl-d2) indoline]
Human 5-HT1A receptor
  RFU@10 μM: 2081 RFU
  EC50: 1260 nM
Plasma stability, rat
  Remaining Percentage (%), 0 min: 100.00%
  remaining at 0.5 h: 92.5%
  remaining at 1 h: 89.7%
  half-life: > 4.26 h
Plasma stability, human
  Remaining Percentage (%), 0 min: 100.00%
  remaining at 0.5 h: 108%
  remaining at 1 h: 113%
  half-life: > 4.26 h
Plasma stability, mouse
  Remaining Percentage (%), 0 min: 100.00%
  remaining at 0.5 h: 105%
  remaining at 1 h: 100%
  half-life: > 4.26 h

## COc1ccc2c(c1)N(C[C@H]1CCCN1)CC2 [(R)-I-59, (R)-6-Methoxy-1-(pyrrolidin-2-ylmethyl) indoline]
Human 5-HT1A receptor
  RFU@10 μM: 521 RFU

## [2H]C([2H])([2H])N1CCC[C@@H]1C([2H])([2H])N1CCc2ccccc21 [(R)-I-1, (R)-1-((1-(Methyl-d3)pyrrolidin-2-yl)methyl-d2) indoline]
Human 5-HT1A receptor
  RFU@10 μM: 84 RFU

## COc1ccc2c(c1)N(C[C@H]1CCCN1C)CC2 [(R)-I-58, (R)-6-Methoxy-1-((1-methylpyrrolidin-2-yl)methyl) indoline]
Human 5-HT1A receptor
  RFU@10 μM: 2444 RFU
  EC50: 2040 nM
Plasma stability, rat
  Remaining Percentage (%), 0 min: 100.00%
  remaining at 0.5 h: 111%
  remaining at 1 h: 110%
  half-life: > 4.26 h
Plasma stability, human
  Remaining Percentage (%), 0 min: 100.00%
  remaining at 0.5 h: 108%
  remaining at 1 h: 98.5%
  half-life: > 4.26 h
Plasma stability, mouse
  Remaining Percentage (%), 0 min: 100.00%
  remaining at 0.5 h: 97.4%
  remaining at 1 h: 105%
  half-life: > 4.26 h

## COc1cc2c(cc1OC)N(C[C@H]1CCCN1C)CC2 [(R)-I-34, (R)-5,6-dimethoxy-1-((1-methylpyrrolidin-2-yl)methyl) indoline]
Human 5-HT1A receptor
  RFU@10 μM: 155 RFU

## [2H]C([2H])([2H])Oc1ccc2c(c1)N(C([2H])([2H])[C@H]1CCCN1C([2H])([2H])[2H])CC2 [(R)-I-28, (R)-6-(Methoxy-d3)-1-((1-(methyl-d3)pyrrolidin-2-yl)methyl-d2) indoline]
Human 5-HT1A receptor
  RFU@10 μM: 1981 RFU
  EC50: 2340 nM
Plasma stability, rat
  Remaining Percentage (%), 0 min: 100.00%
  remaining at 0.5 h: 97.9%
  remaining at 1 h: 94.7%
  half-life: > 4.26 h
Plasma stability, human
  Remaining Percentage (%), 0 min: 100.00%
  remaining at 0.5 h: 95.1%
  remaining at 1 h: 94.2%
  half-life: > 4.26 h
Plasma stability, mouse
  Remaining Percentage (%), 0 min: 100.00%
  remaining at 0.5 h: 99.2%
  remaining at 1 h: 93.3%
  half-life: > 4.26 h

## COc1cccc2c1CCN2C[C@H]1CCCN1C [(R)-I-47, (R)-4-Methoxy-1-((1-methylpyrrolidin-2-yl)methyl) indoline]
Human 5-HT1A receptor
  RFU@10 μM: 70 RFU

## [2H]C([2H])([2H])N(CCN1CCc2ccccc21)C([2H])([2H])[2H] [Compound I-71, 2-(Indolin-1-yl)-N,N-bis(methyl-d3) ethan-1-amine]
Human 5-HT1A receptor
  RFU@10 μM: 145 RFU

## [2H]C([2H])([2H])N(CCN1CCc2ccc(OC)cc21)C([2H])([2H])[2H] [Compound I-70, 2-(6-Methoxyindolin-1-yl)-N, N-bis(methyl-d3) ethan-1-amine]
Human 5-HT1A receptor
  RFU@10 μM: 161 RFU

## COc1cccc2c1N(C[C@H]1CCCN1C)CC2 [(R)-I-46, (R)-7-Methoxy-1-((1-methylpyrrolidin-2-yl)methyl) indoline]
Human 5-HT1A receptor
  RFU@10 μM: 373 RFU
Plasma stability, rat
  Remaining Percentage (%), 0 min: 100.00%
  remaining at 0.5 h: 91.3%
  remaining at 1 h: 86.7%
  half-life: > 4.26 h
Plasma stability, human
  Remaining Percentage (%), 0 min: 100.00%
  remaining at 0.5 h: 104%
  remaining at 1 h: 93%
  half-life: > 4.26 h
Plasma stability, mouse
  Remaining Percentage (%), 0 min: 100.00%
  remaining at 0.5 h: 103%
  remaining at 1 h: 92.4%
  half-life: > 4.26 h
